26 compounds from patent US20240400553A1, “AMINE BASED MATRIPTASE 2 INHIBITORS AND USES THEREOF” (Disc Medicine, Inc., priority 2023, published 2024) can be followed below.

The structures appear in SMILES notation. Bounds are passed on as bounds.

One assay deals with T1, Human Recombinant Matriptase 2 (Homo sapiens, UniProt Q8IU80).
T1 construct: made in house
T1 sequence (Q8IU80 1-811): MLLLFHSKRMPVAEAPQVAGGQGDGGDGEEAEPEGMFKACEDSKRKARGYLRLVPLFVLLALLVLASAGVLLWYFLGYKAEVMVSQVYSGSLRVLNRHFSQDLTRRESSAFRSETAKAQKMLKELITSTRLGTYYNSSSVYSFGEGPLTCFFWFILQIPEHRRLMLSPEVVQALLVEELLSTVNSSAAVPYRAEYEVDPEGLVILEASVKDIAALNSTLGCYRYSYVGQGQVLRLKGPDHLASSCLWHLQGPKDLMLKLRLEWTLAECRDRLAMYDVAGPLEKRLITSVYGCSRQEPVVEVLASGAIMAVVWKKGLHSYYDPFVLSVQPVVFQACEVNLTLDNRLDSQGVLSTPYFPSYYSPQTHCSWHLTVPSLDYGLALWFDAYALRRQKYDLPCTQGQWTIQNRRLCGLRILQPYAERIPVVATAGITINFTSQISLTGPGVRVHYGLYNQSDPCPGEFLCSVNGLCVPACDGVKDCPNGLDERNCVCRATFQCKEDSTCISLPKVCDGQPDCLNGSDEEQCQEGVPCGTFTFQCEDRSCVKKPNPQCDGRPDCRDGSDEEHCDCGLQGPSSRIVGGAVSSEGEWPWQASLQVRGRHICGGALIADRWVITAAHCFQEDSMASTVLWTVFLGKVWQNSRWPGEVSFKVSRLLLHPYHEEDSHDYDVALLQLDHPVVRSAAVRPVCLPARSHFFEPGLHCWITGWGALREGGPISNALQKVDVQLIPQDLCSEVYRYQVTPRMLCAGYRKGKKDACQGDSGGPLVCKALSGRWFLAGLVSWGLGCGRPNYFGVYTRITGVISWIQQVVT
Put plainly: Matriptase 2 inhibition, fluorescence based assay (Method I). Conditions: Table A; Ki of Matriptase-2; read-out: Mat-2 Ki. Format: biochemical. The gist of the method:
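In-house recombinant enzyme (3.5 nM), preincubated 30 min with compound, then Boc-Gln-Ala-Arg-AMC substrate (62 μM) in 50 mM Tris pH 7.5, 150 mM NaCl, 0.01% gelatin, 1% DMSO, 25 °C. Fluorescence (Ex 360/Em 480 nm) read 60 min after substrate; IC50 from variable-slope sigmoidal fit of % inhibition.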
On to `Cc1cccc(C)c1CS(=O)(=O)Nc1cc(Cn2c(C(=O)OCc3cncn3C)cc3ccc(CN)nc32)c2ccccc2c1` [Compound 187, (1-methyl-1H-imidazol-5-yl)methyl 6-(amino-methyl)-1-({3-[(2,6-dimethylphenyl)methane-sulfonamido]naphthalen-1-yl}methyl)-1H-pyr-rolo[2,3-b]pyridine-2-carboxylate], for which the Ki was ≤ 100 nM.
With `CN(C)CCOC(=O)c1cc2ccc(CN)nc2n1Cc1cc(NS(=O)(=O)Cc2cccs2)cc2ccccc12` [Compound 148, 2-(dimethylamino)ethyl 6-(aminomethyl)-1-({3-[(thiophen-2-yl)methane-sulfonamido]naphthalen-1-yl}methyl)-1H-pyr-rolo[2,3-b]pyridine-2-carboxylate], the Ki was ≤ 100 nM.
In the case of `NCc1ccc2cc(C(N)=O)n(Cc3cc(NS(=O)(=O)Cc4ccccc4)cc4ccccc34)c2n1` [Compound 57, 6-(aminomethyl)-1-{[3-(phenylmethanesulfon-amido)naphthalen-1-yl]-methyl}-1H-pyrrolo[2,3-b]pyridine-2-carboxamide], the Ki is ≤ 100 nM.
The same measure, in the same setting: the same measure for `Cc1cccc(C)c1CS(=O)(=O)Nc1cc(Cn2c(C(=O)OCCC3CCN(C)CC3)cc3ccc(CN)nc32)c2ccccc2c1` [Compound 185, 2-(1-methylpiperidin-4-yl)ethyl 6-(aminometh-yl)-1-({3-[(2,6-dimethyl-phenyl)methanesulfon-amido]naphthalen-1-yl}-methyl)-1H-pyrrolo[2,3-b]pyridine-2-carboxylate]: ≤ 100 nM; for `CNCCCOC(=O)c1cc2ccc(CN)nc2n1Cc1cc(NS(=O)(=O)Cc2ccccc2)cc2ccccc12` [Compound 35, 3-(methylamino)propyl 6-(aminomethyl)-1-{[3-(phenylmethanesulfon-amido)naphthalen-1-yl]-methyl}-1H-pyrrolo[2,3-b]pyridine-2-carboxylate]: ≤ 100 nM.
On to `NCc1ccc2cc(C(=O)OC[C@H]3CCCCN3)n(Cc3cc(NS(=O)(=O)Cc4ccccc4)cc4ccccc34)c2n1` [Compound 72, [(2R)-piperidin-2-yl]-methyl 6-(aminomethyl)-1-{[3-(phenylmethane-sulfonamido)naphthalen-1-yl]methyl}-1H-pyr-rolo[2,3-b]pyridine-2-carboxylate], for which the Ki is ≤ 100 nM.
Regarding `CC(=O)N(C)CCOC(=O)c1cc2ccc(CN)nc2n1Cc1cc(NS(=O)(=O)Cc2ccsc2)cc2ccccc12` [Compound 171, 2-(N-methylacetamido)-ethyl 6-(aminomethyl)-1-({3-[(thiophen-3-yl)-methanesulfonamido]-naphthalen-1-yl}meth-yl)-1H-pyrrolo[2,3-b]-pyridine-2-carboxylate], the inhibitory constant (Ki) was ≤ 100 nM.
The same measure, in the same setting: in the case of `CN1CC[C@H](COC(=O)c2cc3ccc(CN)nc3n2Cc2cc(NS(=O)(=O)Cc3ccccc3)cc3ccccc23)CC1=O` (racemic) [Compound 30, rac-[(4R)-1-methyl-2-oxopiperidin-4-yl]meth-yl 6-(aminomethyl)-1-{[3-(phenylmethane-sulfonamido)naphthalen-1-yl]methyl}-1H-pyr-rolo[2,3-b]pyridine-2-carboxylate] it was ≤ 100 nM.
The same measure, in the same setting: the same measure for `CN1CCC[C@H](OC(=O)c2cc3ccc(CN)nc3n2Cc2cc(NS(=O)(=O)Cc3ccccc3)cc3ccccc23)C1` (racemic) [Compound 99, 1-methylpiperidin-3-yl 6-(aminomethyl)-1-{[3-(phenylmethanesulfon-amido)naphthalen-1-yl]-methyl}-1H-pyrrolo[2,3-b]pyridine-2-carboxylate]: 100 to 500 nM; for `NCc1ccc2cc(C(=O)OCc3cccnc3)n(Cc3cc(NS(=O)(=O)Cc4ccccc4)cc4ccccc34)c2n1` [Compound 81, (pyridin-3-yl)methyl 6-(aminomethyl)-1-{[3-(phenylmethanesulfon-amido)naphthalen-1-yl]-methyl}-1H-pyrrolo[2,3-b]pyridine-2-carboxylate]: ≤ 100 nM; for `NCc1ccc2cc(C(=O)OC[C@H]3CNCCO3)n(Cc3cc(NS(=O)(=O)Cc4ccccc4)cc4ccccc34)c2n1` [Compound 36]: ≤ 100 nM.

Staying with this assay, now noted: Table A; Ki of Matriptase-2 given as class symbols; read-out: Mat-2 Ki.
`CN1CCC(COC(=O)c2cc3ccc(CN)nc3n2Cc2cc(NS(=O)(=O)Cc3cnsc3)cc3ccccc23)CC1` [Compound 210, (1-methylpiperidin-4-yl)-methyl 6-(aminomethyl)-1-({3-[(1,2-thiazol-4-yl)-methanesulfonamido]-naphthalen-1-yl}methyl)-1H-pyrrolo[2,3-b]pyr-idine-2-carboxylate]: the inhibitory constant (Ki) was ≤ 100 nM.
Same read-out and setting: the same measure for `CCN(CC)CCS(=O)(=O)Nc1cc(Cn2c(C(=O)O)cc3ccc(CN)nc32)c2ccccc2c1` [Compound 265, 6-(aminomethyl)-1-({3-[2-(diethylamino)ethane-sulfonamido]naphthalen-1-yl}methyl)-1H-pyr-rolo[2,3-b]pyridine-2-carboxylic acid]: 100 to 500 nM; for `CC[C@H]1CCCCN1C(=O)Nc1cc(Cn2c(C(=O)O)cc3ccc(CN)nc32)c2ccccc2c1` (racemic) [Compound 306, rac-6-(aminomethyl)-1-[(3-{[(2R)-2-ethylpiper-idine-1-carbonyl]amino}-naphthalen-1-yl)methyl]-1H-pyrrolo[2,3-b]pyr-idine-2-carboxylic acid]: 500 to 3000 nM.
The same measure, in the same setting: the same measure for `NCc1ccc2cc(C(=O)O)n(Cc3cc(NS(=O)(=O)Cc4ccccc4)cc4cccc(O)c34)c2n1` [Compound 360, 6-(aminomethyl)-1-((8-hydroxy-3-((phenylmethyl)sulfonamido)naphthalen-1-yl)methyl)-1H-pyrrolo[2,3-b]pyridine-2-carboxylic acid]: 100 to 500 nM.
For the compound `Cc1cccc(C)c1CS(=O)(=O)Nc1cc(Cn2c(C(=O)OCCN3CCOCC3)cc3ccc(CN)nc32)c2ccccc2c1` [Compound 199, 2-(morpholin-4-yl)ethyl 6-(aminomethyl)-1-({3-[(2,6-dimethylphenyl)-methanesulfonamido]-naphthalen-1-yl}meth-yl)-1H-pyrrolo[2,3-b]-pyridine-2-carboxylate], the Ki lay in the range of 100 to 500 nM.
Still for that read-out and setting: the same measure for `NCc1ccc2cc(C(=O)O)n(Cc3cc(NS(=O)(=O)CCc4ccccc4)cc4ccccc34)c2n1` [Compound 230, 6-(aminomethyl)-1-{[3-(2-phenylethanesulfon-amido)naphthalen-1-yl]-methyl}-1H-pyrrolo[2,3-b]pyridine-2-carboxylic acid]: 100 to 500 nM; for `CN1CCC(COC(=O)c2cc3ccc(CN)nc3n2Cc2cc(NS(=O)(=O)Cc3ccoc3)cc3ccccc23)CC1` [Compound 207, (1-methylpiperidin-4-yl)-methyl 6-(aminomethyl)-1-({3-[(furan-3-yl)meth-anesulfonamido]naph-thalen-1-yl}methyl)-1H-pyrrolo[2,3-b]pyridine-2-carboxylate]: ≤ 100 nM.
Still for that read-out and setting: in the case of `NCc1ccc2cc(C(=O)O)n(Cc3cc(NS(=O)(=O)CC4CCNCC4)cc4ccccc34)c2n1` [Compound 216, 6-(aminomethyl)-1-({3-[(piperidin-4-yl)methane-sulfonamido]naphthalen-1-yl}methyl)-1H-pyr-rolo[2,3-b]pyridine-2-carboxylic acid] it was 100 to 500 nM; in that of `CN1CCC[C@@H]1COC(=O)Nc1cc(Cn2c(C(=O)O)cc3ccc(CN)nc32)c2ccccc2c1` (racemic) [Compound 335, 6-(aminomethyl)-1-{[3-({[(1-methylpyrrolidin-2-yl)methoxy]carbon-yl}amino)naphthalen-1-yl]methyl}-1H-pyrrolo-[2,3-b]pyridine-2-car-boxylic acid], 100 to 500 nM.

Staying with this assay, now noted: Table B; Human Recombinant Matriptase 2, 3.5 nM enzyme, 62 μM substrate, 30 mins preincubation; read-out: Mean Ki.
Turning to `CNC12CC(COC(=O)c3cc4ccc(CN)nc4n3Cc3cc(NS(=O)(=O)Cc4c(C)cccc4C)cc4c3CCCC4)(C1)C2` [Compound 2.38], the inhibitory constant (Ki) is ≤ 100 nM.
With `CN(C)c1ccc(COC(=O)c2cc3ccc(CN)nc3n2Cc2cc(NS(=O)(=O)Cc3ccccc3)cc3ccccc23)cc1` [Compound 2.27], the inhibitory constant (Ki) lay in the range of 100 to 500 nM.
Still for that read-out and setting: the same measure for `CN1CCC(COC(=O)c2cc3ccc(CN)nc3n2Cc2cc(NS(=O)(=O)Cc3ccsc3)cc3ccccc23)CC1=O` (centres unmarked) [Compound 2.32]: ≤ 100 nM; for `NCc1ccc2cc(C(=O)OCC3CCNC(=O)C3)n(Cc3cc(NS(=O)(=O)Cc4ccsc4)cc4c3CCCC4)c2n1` (centres unmarked) [Compound 2.11]: ≤ 100 nM; for `CN1CCC(CCCOC(=O)c2cc3ccc(CN)nc3n2Cc2cc(NS(=O)(=O)Cc3ccccc3)cc3ccccc23)CC1` [Compound 2.23]: ≤ 100 nM.
Same read-out and setting: in the case of `CB1C=Cc2c(Cn3c(C(=O)OCC4CCN(C)CC4)cc4ccc(CN)nc43)cc(NS(=O)(=O)Cc3ccccc3)cc2N1` [Compound 2.25] it was ≤ 100 nM.

By Ki is commonly meant a measure of affinity in units of concentration, obtained from inhibition or displacement.
